Experimental data: patent US11529367B2, “Radiation damage protective agent” (MiZ Company Limited, priority 2016, dated 2022)

System: cancer patients subjected to IMRT irradiation (bone marrow damage by radiation)
Details: mean±SE, n=16, before treatment taken as 1
Experimental: These patients were subjected to IMRT irradiation integrated with a computed tomograph (CT). Irradiation was in principle performed on a schedule of once a day, five times per week, and this schedule was repeated. Radiation was applied at 1 to 5 locations for 5 to 20 minutes once, and the number of times irradiation was performed was 5 to 20.
These patients were housed in a hyperbaric capsule (APF 2, 700×1900 mm; oxygen concentration: 28% by volume; Air Press Co., Ltd.) at 1.35 atm for 30 minutes after each irradiation with radiation to alleviate the adverse effects.
In addition, 16 patients (8 males and 8 females) who had visited from April 2016 until November 2016 were included in the hydrogen group. These patients were housed in the capsule similar to the above-mentioned capsule except that a hydrogen gas inhaler (MHG-44280, MiZ Company Limited), which generates approximately 6.5% by volume of hydrogen gas (4 L/min) by electrolysis of water, was connected in series with and upstream the air intake of the pressurizing device for the hyperbaric capsule provided outside the capsule, so as to feed high-pressure air containing hydrogen gas into the capsule, while the patients were allowed to inhale, via the nasal cannula, for 30 minutes, 4% by volume to 6% by volume of hydrogen gas (4 L/min) carried through a Y-shaped tube by which the air outlets of two hydrogen gas inhalers (MHG-2070 and MHG-2140, MiZ Company Limited) provided in the capsule were connected in parallel. The hydrogen gas concentration in the ceiling portion of the capsule was approximately 0.2% by volume.
Blood samples were taken periodically from both groups of patients before, during and after radiation treatment. The analysis items of blood were the white blood cell count (WBC), red blood cell count (RBC), hemoglobin level (Hb), hematocrit level (Ht) and platelet count (PLT), and these were used as indicators for hematopoietic function.

[1] = 4-6% by volume hydrogen gas inhaled 30 min in hyperbaric capsule at 1.35 atm, no significant difference vs control

[HH] [H2, hydrogen gas]
WBC ratio: relative value of the white blood cell count (WBC) immediately after radiation treatment to the WBC before radiation treatment (4-6% by volume hydrogen gas inhaled 30 min in hyperbaric capsule at 1.35 atm after each irradiation, p<0.01 vs control): 0.612±0.088 | Hb ratio: relative value of the hemoglobin level (Hb) immediately after radiation treatment to the Hb before radiation treatment [1]: 0.966±0.029 | Ht ratio: relative value of the hematocrit level (Ht) immediately after radiation treatment to the Ht before radiation treatment [1]: 0.953±0.027 | RBC ratio: relative value of the red blood cell count (RBC) immediately after radiation treatment to the RBC before radiation treatment [1]: 0.985±0.027 | PLT ratio: relative value of the platelet count (PLT) immediately after radiation treatment to the PLT before radiation treatment (4-6% by volume hydrogen gas inhaled 30 min in hyperbaric capsule at 1.35 atm, p<0.05 vs control): 0.752±0.130
